Laboratory results: ChEMBL document CHEMBL1201862, “PubChem BioAssay data set” (2004)
Active and inactive are the calls of the source.

Key:
[1] = HIV-1 Env-mediated cell fusion inhibitors, dose response, CCR5-tropic Env (AID 2279); type: functional
[2] = target: T1, Carboxy-terminal domain RNA polymerase II polypeptide A small phosphatase 1 (Homo sapiens, UniProt Q9GZU7); assay: inhibitors of CTDSP1, concentration-response testing, biochemical assay, absorbance-based, actives from ultra-high-throughput screening (AID 540297); type: functional
T1 sequence (Q9GZU7 whole entry): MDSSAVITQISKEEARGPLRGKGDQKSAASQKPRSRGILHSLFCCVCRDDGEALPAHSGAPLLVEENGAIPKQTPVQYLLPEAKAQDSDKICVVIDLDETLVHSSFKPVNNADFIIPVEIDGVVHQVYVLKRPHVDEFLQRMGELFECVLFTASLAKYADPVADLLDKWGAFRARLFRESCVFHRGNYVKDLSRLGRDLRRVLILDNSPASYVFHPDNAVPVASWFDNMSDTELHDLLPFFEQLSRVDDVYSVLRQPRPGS

[3] = HEp-2 cell cytotoxicity, dose response, cytotoxicity control for RSV inhibitor project, HTS (AID 2410); type: functional; settings: human respiratory syncytial virus
Estrogen receptor = target: T2, Estrogen receptor (Homo sapiens, UniProt P03372);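 also: potency for inhibiting coactivator peptide recruitment to the receptor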
T2 sequence (P03372 whole entry): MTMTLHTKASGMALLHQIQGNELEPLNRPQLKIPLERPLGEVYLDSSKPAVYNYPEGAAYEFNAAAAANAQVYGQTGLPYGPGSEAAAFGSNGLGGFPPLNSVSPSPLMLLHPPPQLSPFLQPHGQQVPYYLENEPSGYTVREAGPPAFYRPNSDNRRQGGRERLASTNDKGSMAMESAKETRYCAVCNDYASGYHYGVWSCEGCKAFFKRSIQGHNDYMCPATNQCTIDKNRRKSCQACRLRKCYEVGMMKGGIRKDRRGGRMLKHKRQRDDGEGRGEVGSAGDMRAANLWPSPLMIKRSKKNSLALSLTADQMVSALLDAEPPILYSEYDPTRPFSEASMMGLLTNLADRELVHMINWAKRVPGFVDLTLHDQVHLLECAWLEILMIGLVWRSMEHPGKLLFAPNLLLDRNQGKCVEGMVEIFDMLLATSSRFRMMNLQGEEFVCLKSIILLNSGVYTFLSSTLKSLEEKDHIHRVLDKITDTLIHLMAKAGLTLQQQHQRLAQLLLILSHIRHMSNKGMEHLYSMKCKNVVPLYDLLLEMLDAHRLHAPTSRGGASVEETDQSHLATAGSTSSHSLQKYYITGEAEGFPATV

[4] = inhibitors of intracellular T. cruzi replication, confirmation, NIH3T3 host cells, beta-gal luminescence (AID 2044); type: functional, cell-based;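 also: intracellular parasites grown in NIH/3T3 mouse fibroblasts as host cells; luminescent beta-galactosidase reporter signal from transgenic T. cruzi replicating inside host cells; inhibitors lower the luminescence signal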
[5] = cytotoxicity toward NIH3T3 fibroblasts, dose response, counter-screen, cell-based, ATP luminescence, mouse fibroblasts (AID 2010); type: functional;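 also: cells exposed to compound for about 90 hours before reading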
[6] = Luminescence Cell-Based Dose Response HTS to Identify Activators of Luciferase Translation or Activity in H4 […] Cells. [Related pubchem assays: 1829 (Project Summary), 1814 (Primary HTS)]; type: functional
[7] = target: T3, Heat shock factor protein 1 (Mus musculus, UniProt P38532); assay: inhibition of MG132-induced HSE-luciferase signal, confirmation, cell-based, NIH3T3, luminescence, dose retest (AID 2382); type: functional;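 also: NIH3T3 fibroblasts with HSF1-driven luciferase reporter stressed by proteasome inhibitor MG132; luminescence from HSF1-driven luciferase expression after 8 hours of MG132 stress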
T3 sequence (P38532 whole entry): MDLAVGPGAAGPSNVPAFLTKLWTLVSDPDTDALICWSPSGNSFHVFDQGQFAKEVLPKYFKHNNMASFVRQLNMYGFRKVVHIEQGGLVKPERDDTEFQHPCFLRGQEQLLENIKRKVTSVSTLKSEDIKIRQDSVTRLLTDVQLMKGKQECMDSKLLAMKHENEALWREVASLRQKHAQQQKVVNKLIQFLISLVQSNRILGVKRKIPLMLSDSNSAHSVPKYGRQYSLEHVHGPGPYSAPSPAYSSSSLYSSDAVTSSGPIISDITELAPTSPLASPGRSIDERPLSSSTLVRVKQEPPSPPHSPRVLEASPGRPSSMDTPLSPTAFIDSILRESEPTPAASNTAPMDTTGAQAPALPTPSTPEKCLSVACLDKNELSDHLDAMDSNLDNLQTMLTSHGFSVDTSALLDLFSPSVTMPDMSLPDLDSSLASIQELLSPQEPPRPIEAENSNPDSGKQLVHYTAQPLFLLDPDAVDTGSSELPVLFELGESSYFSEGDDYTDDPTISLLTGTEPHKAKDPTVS

[8] = Luminescence Cell-Based Dose Confirmation to Identify Activators of 5'UTR Stem-Loop Driven Alpha-Synuclein mRNA Translation in H4 Neuroglioblastoma Cells. [Related pubchem assays: 1829 (Project Summary), 1814 (Primary HTS)]; type: functional
[9] = Luminescence Cell-Based Dose Response to Identify Activators of 5'UTR Stem-Loop Driven Prion Protein mRNA Translation in H4-C Neuroglioblastoma Cells. [Related pubchem assays: 1829 (Project Summary), 1814 (Primary HTS)]; type: functional
H4 = assay: Luminescence Cell-Based Dose Response HTS to Identify Activators of 5'UTR Stem-Loop Driven Prion Protein mRNA Translation in H4 Neuroglioblastoma Cells. [Related pubchem assays: 1829 (Project Summary), 1814 (Primary HTS)]; type: functional; settings: Homo sapiens
[10] = Luminescence Cell-Based Dose Response to Identify Activators of Luciferase Translation or Activity in H4-C Neuroglioblastoma Cells. [Related pubchem assays: 1829 (Project Summary), 1814 (Primary HTS)]; type: functional
[11] = Luminescence-based dose response cell-based high throughput screening assay for cytotoxic compounds using the IEC-6 intestinal epithelial cell line. [Related pubchem assays: 1858 (Summary AID.), 1825 (Counterscreen.), 1907 (Confirmation screen.)]; type: functional
Vero = Vero cell cytotoxicity, cytotoxicity control for flavivirus capping enzyme inhibitors (AID 588742); type: functional; settings: Chlorocebus sabaeus
[12] = Luminescence Cell-Based Dose Confirmation HTS to Identify Activators of 5'UTR Stem-Loop Driven Alpha-Synuclein mRNA Translation in H4 Neuroglioblastoma Cells. [Related pubchem assays: 1829 (Project Summary), 1814 (Primary HTS)]; type: functional
Aminopeptidase N = target: T4, Aminopeptidase N (Plasmodium falciparum FcB1/Columbia, UniProt O96935); assay: P. falciparum M1AAP inhibitors, biochemical, fluorogenic H-Leu-NHMec substrate, 1536-well (AID 1445); design: species or system Plasmodium falciparum 3D7, 3D7
T4 sequence (O96935 whole entry): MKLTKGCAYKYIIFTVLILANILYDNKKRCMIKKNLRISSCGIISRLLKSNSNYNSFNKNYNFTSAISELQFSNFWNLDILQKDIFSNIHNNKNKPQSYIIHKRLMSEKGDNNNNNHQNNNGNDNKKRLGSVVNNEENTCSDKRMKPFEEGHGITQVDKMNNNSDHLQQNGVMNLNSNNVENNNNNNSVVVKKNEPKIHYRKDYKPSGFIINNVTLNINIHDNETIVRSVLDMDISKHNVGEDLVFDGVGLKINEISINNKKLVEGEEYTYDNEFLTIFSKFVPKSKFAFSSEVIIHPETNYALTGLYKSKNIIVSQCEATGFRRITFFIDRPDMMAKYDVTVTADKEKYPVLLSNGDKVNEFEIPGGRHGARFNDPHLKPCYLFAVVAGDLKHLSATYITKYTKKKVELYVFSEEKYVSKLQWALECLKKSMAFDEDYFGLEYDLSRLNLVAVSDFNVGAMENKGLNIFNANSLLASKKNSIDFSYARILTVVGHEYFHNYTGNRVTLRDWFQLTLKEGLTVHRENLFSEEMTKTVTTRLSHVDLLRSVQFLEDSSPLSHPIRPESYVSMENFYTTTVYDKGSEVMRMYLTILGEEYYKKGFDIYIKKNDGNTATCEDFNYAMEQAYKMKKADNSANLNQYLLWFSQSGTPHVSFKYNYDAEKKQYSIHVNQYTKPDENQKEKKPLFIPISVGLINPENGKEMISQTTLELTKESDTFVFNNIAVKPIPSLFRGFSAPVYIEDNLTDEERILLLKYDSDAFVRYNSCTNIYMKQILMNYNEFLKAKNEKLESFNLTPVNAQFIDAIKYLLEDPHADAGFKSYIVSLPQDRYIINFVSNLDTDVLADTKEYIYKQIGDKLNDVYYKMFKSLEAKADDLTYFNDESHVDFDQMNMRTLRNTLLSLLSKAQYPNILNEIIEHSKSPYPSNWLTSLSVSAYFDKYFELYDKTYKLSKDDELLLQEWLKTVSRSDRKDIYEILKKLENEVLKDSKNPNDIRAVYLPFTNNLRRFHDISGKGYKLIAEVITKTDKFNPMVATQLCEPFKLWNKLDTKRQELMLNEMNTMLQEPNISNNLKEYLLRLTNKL

Genome polyprotein = Genome polyprotein (dengue virus type 2, UniProt P29990); assay: Dengue-2 NS5 methyltransferase inhibitors, primary screen, biochemical, confirmation dose response (AID 588689); type: functional
[13] = target: T5, Aryl hydrocarbon receptor (Homo sapiens, UniProt P35869); assay: Luminescence-based cell-based high throughput dose response assay for activators of the Aryl Hydrocarbon Receptor (AHR). [Related pubchem assays: 2796 (Primary screen (AHR activators in singlicate)), 2845 (Confirmation screen (AHR activators in triplicate)), 434939 (Counterscreen (PXR activators in triplicate)), 2804 (Summary (AHR activators))]; type: ADME
T5 sequence (P35869 whole entry): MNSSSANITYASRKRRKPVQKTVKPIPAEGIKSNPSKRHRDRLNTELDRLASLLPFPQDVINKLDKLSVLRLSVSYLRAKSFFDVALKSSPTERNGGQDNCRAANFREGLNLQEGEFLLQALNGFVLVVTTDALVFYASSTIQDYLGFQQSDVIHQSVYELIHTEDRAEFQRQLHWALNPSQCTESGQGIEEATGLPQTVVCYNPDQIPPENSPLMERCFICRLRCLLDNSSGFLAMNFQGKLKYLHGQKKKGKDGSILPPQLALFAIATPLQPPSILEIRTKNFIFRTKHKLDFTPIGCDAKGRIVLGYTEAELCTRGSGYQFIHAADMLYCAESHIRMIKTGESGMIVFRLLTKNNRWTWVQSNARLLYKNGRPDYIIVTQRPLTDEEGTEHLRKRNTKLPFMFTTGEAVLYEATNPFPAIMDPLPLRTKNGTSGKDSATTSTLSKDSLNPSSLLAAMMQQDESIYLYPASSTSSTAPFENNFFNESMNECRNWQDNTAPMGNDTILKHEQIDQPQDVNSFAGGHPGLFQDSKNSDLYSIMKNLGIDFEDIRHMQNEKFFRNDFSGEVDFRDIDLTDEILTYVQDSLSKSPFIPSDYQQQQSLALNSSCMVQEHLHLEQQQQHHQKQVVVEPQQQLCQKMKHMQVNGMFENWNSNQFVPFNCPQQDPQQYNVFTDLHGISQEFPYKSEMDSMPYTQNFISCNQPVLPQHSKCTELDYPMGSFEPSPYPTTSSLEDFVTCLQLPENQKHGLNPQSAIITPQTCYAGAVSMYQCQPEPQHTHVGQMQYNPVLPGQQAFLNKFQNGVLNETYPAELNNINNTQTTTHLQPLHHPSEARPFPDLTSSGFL

[14] = growth suppression of PTEN-null colon cells, dose response, cell-based, HCT116 PTEN knockout (AID 1047); type: functional;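 also: HCT116 colon tumor cells with PTEN knocked out; cells exposed to compound for 60 hours before readout; potency for loss of cell viability measured by luminescence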
[15] = A Cell Based Secondary Assay To Explore Cytotoxicity of Compounds that Sensitize Mycobacterium Tuberculosis to Beta-Lactam Antibiotics.; type: functional
[16] = growth suppression of beta-catenin-knockout colon cells, dose response, cell-based, HCT116, human colon tumor (AID 1045); type: functional;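 also: HCT116 colon tumor cells with beta catenin knocked out; cells exposed to compound for 60 hours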
INS1 = assay: beta cell apoptosis inhibitors, cytokine rescue, dose response, luminescence, retest (AID 449756); type: functional, cell-based; settings: Rattus norvegicus;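 also: cell death triggered by IL-1 beta plus TNF-alpha plus IFN-gamma mixture; protective hits raise ATP signal compared with cytokine alone wells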
Streptococcus = assay: Group A Streptococcus viability loss, dose response, counter-screen for streptokinase expression inhibitor project, luminescence, BacTiterGlo (AID 1915); type: functional, organism-based;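 also: potency for reduction of bacterial viability or growth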
[17] = tested on: Streptococcus sp. 'group A'; assay: growth inhibition of control SK(-) GAS strain, dose response, counter-screen for streptokinase expression inhibitor project, luminescence, kanamycin, BacTiterGlo, confirmation (AID 1900); type: functional, organism-based

Chain of Genome polyprotein (P29990 2492-3391 limits assumed): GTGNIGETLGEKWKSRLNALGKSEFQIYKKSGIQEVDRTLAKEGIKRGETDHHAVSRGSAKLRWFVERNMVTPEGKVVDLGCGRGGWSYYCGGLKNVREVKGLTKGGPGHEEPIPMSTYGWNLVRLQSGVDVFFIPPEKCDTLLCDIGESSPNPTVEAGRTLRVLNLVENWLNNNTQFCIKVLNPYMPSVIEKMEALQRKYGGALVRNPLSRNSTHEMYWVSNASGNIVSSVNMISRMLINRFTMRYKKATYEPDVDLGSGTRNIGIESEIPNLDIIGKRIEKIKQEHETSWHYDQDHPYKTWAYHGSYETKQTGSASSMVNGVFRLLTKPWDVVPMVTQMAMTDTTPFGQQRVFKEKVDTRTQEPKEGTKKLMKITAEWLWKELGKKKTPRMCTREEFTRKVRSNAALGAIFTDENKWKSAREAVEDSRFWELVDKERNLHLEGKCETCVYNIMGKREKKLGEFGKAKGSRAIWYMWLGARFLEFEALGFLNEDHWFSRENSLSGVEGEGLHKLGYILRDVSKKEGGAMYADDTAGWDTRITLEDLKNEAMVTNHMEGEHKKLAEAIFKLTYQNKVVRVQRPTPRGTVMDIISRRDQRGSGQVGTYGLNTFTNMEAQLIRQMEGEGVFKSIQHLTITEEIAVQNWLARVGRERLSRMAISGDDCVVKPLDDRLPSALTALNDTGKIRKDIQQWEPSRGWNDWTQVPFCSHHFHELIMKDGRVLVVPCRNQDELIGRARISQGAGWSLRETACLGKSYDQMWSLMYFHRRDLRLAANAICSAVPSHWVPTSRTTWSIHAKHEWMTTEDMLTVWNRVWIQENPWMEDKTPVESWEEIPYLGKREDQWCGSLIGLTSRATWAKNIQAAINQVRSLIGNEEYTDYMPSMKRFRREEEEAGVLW

## COc1cc(/C=C2\C(=N)N3N=C(S(C)(=O)=O)SC3=NC2=O)ccc1OCCOc1ccccc1C
[1]
  IC50: 28.5 µM (active)
[2]
  IC50: 3.51 µM (active)
[3]
  CC50: 26.3 µM (active)

## COc1cccc(-c2nnc(NC(=O)Cc3cccs3)s2)c1
Estrogen receptor
  IC50: 19.1 µM (active)

## O=C(CCC1CCCN(Cc2ccc3c(c2)CCO3)C1)NCc1ccc(F)c(F)c1 (stereo not drawn)
[4]
  EC50: < 0.1 µM (active)
[5]
  EC50: > 60 µM (not active)
cells
  EC50: 0.011 µM (active)

## CCn1c(C)cc(/C=C2/NC(=O)N(c3ccccc3)C2=O)c1C
[6]
  EC50: < 0.1 µM (active)
[7]
  EC50: > 195 µM (not active)
[8]
  EC50: 0.307 µM (active)
[9]
  EC50: 0.505 µM (active)
H4
  EC50: > 120 µM (not active)
[10]
  EC50: 0.236 µM (active)

## OC1=C2C(=Nc3cc4c(cc3C2c2ccc(F)cc2)OCCO4)CO1 (stereo not drawn)
[11]
  IC50: 0.0539 µM (active)

## CSc1nnc(-c2ccccc2/N=C/c2c(C)nn(-c3ccc4ccccc4c3)c2O)c(O)n1
[1]
  IC50: 3.61 µM (active)
[6]
  EC50: 8.3 µM (active)
Vero
  CC50: > 40 µM (active)
[12]
  EC50: 9.56 µM (active)
Aminopeptidase N
  IC50: 31.9 µM (active)
Genome polyprotein
  IC50: 37.5 µM (active)
H4
  EC50: 46.3 µM (active)

## COc1cccc(C(=O)O/N=C(\N)c2ccc([N+](=O)[O-])cc2)c1
[13]
  EC50: 3.57 µM (active)

## CC(=O)Nc1cc(-c2ccc(Cl)cc2)n[nH]1
[13]
  EC50: 1.8 µM (active)

## C/C(=N/NC(=O)c1cccs1)c1c(C)[nH]n(-c2nc3ccccc3s2)c1=O
[14]
  EC50: 11.2 µM (active)
[15]
  CC50: 25.8 µM (active)
[16]
  EC50: 10.9 µM (active)
INS1
  AC50: 7.34 µM (active)
Streptococcus
  EC50: 9.42 µM (active)
[17]
  EC50: 5.77 µM (active)

## Cc1cc2nc(SCCN3CCOCC3)[nH]c2cc1C
[6]
  EC50: 1.88 µM (active)
[8]
  EC50: 0.345 µM (active)
[12]
  EC50: < 0.1 µM (active)
[9]
  EC50: 0.61 µM (active)
H4
  EC50: 0.22 µM (active)
[10]
  EC50: 0.338 µM (active)

## Cc1occc1C(=O)NC1CCCN(Cc2ccc(CC(C)C)cc2)C1 (stereo not drawn)
[4]
  EC50: < 0.1 µM (active)
[5]
  EC50: > 60 µM (not active)
cells
  EC50: 0.073 µM (active)
